# Columns and labels:
# [1] = system: Human umbilical vein endothelial cell; test: In Vitro Angiogenesis Assay (morphogenesis / tube formation on Matrigel, ECMatrix kit); format: cell-based; design: key to Results (In Vitro Angiogenesis Assay score): Individual cells, well separated (+++++); Cells begin to migrate and align themselves (++++); Cells begin to line but not sprouting (+++); Visible Sprouting (++); Closed polygons begins to form (+); conditions: for Results (In Vitro Angiogenesis Assay score): HUVECs on ECMatrix, 8 hours at 37° C., inhibitors 1 mM and 10 mM, higher score = greater inhibition of angiogenesis
# Description: Human umbilical vein endothelial cell was purchased from Cambrex Co. (East Rutherford, N.J.) and maintained in EGM (Endothelial Growth Medium) supplemented with 2% FBS, 0.1% EGF, 0.1% Hydrocortisone, 0.1% GA-1000 and 0.4% BBE.
# The morphogenesis assay on Matrigel was performed according to the manufacturer's instructions (Chemicon International). The ECMatrix™ kit consists of laminin, collagen type IV, heparan sulfate, proteoglycans, entactin and nidogen. It also contains various growth factors (TGF-β, FGF) and proteolytic enzymes (plasminogen, tPA, MMPs) that are normally produced in EHS tumors. The incubation condition was optimized for maximal tube-formation as follows: 50 μl of EC Matrix™ was suitably diluted in the ratio 9:1 with 10× diluent buffer and used for coating the 96-well plate. The coated plates were incubated at 37° C. for 1 hr. to allow the Matrix solution to solidify. In the meantime the HUVECs that were cultured for 24 hours in EGM with 2% FBS was trypsinised and re-suspended in the growth media and the cells were counted. After 1 hr. pre-incubation of the plate with Matrix solution, the HUVECs were plated at 10^4 cells/well in the absence or in the presence of different VEGFR inhibitors (1 mM and 10 mM). After 8 hours incubation at 37° C., the cell three-dimensional organization (cellular network structures) was examined under an inverted photomicroscope. Each treatment was performed in triplicate.
# Activated endothelial cells form cellular networks (mesh like structures) resembling capillary tubes sprouting into the stromal space. The formation of these cellular networks is a dynamic process, which started migration and alignment of cells followed by the development of capillary tubes like structures, sprouting of new branches and finally the formation of the cellular networks. Although this in vitro angiogenesis kit is designed only as a qualitative assay, we have made an attempt to quantitate the degree of angiogenesis using a scoring method. The scoring was based on the extent of the cellular networks that were observed as follows:
# Individual cells, well separated (+++++)
# Cells begin to migrate and align themselves (++++)
# Cells begin to line but not sprouting (+++)
# Closed polygons begins to form (+).
# According to our qualitative assessment, the higher the scoring the greater the efficiency of the compound for inhibiting endothelial cell mediated angiogenesis.
# GI-101A = test: Cytotoxicity towards breast carcinoma cell line GI-101A; format: cell-based
# MCF-7 = test: Cytotoxicity towards breast carcinoma cell line MCF-7; format: cell-based
# VEGFR = test: Assay of VEGF Receptor Tyrosine Kinase Activity (VEGFR immunoprecipitated from cell lysate, non-radioactive PTK ELISA kit); format: biochemical
# Text: Protein Tyrosine Kinases (PTKs) perform a critical role in signal transduction pathways that control cell proliferation, differentiation, metabolism, and apoptosis. Phosphorylation of proteins by PTKs is essential for the regulation of these biological mechanisms and defects in these pathways may result in a number of human diseases, including cancer. The important aspect of these enzymes in cellular regulation is accentuated by the fact that for a large number of kinases a corresponding viral oncogene product has been identified. […] CHEMICON's non-radioactive Tyrosine Kinase Activity Assay provides a simple, convenient and specific method for quantification and comparative determination of a wide range of PTKs. […]
# The non-radioactive Tyrosine Kinase Activity Assay Kit consists of a synthetic Biotinylated Peptide Substrate, a Biotinylated Phosphopeptide, purified Phosphotyrosine specific monoclonal antibody conjugated to horseradish peroxidase (HRP) and other components required to perform 96 ELISA-based assays. […] The quantity of phosphate incorporated into the tyrosine kinase substrate is determined utilizing the phosphopeptide standard curve. […] The assay reaction would be terminated by the addition of 100 μl of stop solution and finally, the absorbance was measure on a standard microplate reader at 450 nm. […]
smiles,measurement,setting,value
O=C(Nc1ccc2c(c1)C(=O)NC2=O)c1nc2ccccc2s1 [Example 1],Results (In Vitro Angiogenesis Assay score),[1],++++
N#Cc1ccc(C(=O)Nc2ccc3c(c2)C(=O)NC3=O)cc1 [Example 2],Results (In Vitro Angiogenesis Assay score),[1],+++
CC(=O)c1ccc(C(=O)Nc2ccc3c(c2)C(=O)NC3=O)cc1 [Example 3],Results (In Vitro Angiogenesis Assay score),[1],++
O=C(Nc1cccc2c1C(=O)NC2=O)c1ccc([N+](=O)[O-])o1 [Example 4],cytotoxicity towards GI-101A,GI-101A,produced cytotoxicity
same,cytotoxicity towards MCF-7,MCF-7,produced cytotoxicity
same,IC50,"VEGFR; VEGFR immunoprecipitated from cell lysate, PTK assay, read-out: IC50 for inhibiting VEGFR kinase",400 nM
same,inhibition of VEGFR associated tyrosine kinase activity (in words),VEGFR; level of inhibition increased with concentration,able to inhibit the VEGFR associated tyrosine kinase activity
same,Results (In Vitro Angiogenesis Assay score),[1],+++++
same,EC50,"[1]; Homo sapiens, Endothelial cell, estimated, read-out: EC50 value for anti-antigenic effect",25 nM
O=C(Nc1cccc2c1C(=O)NC2=O)c1ccc(S(=O)(=O)N2CCCCC2)cc1 [Example 5],Results (In Vitro Angiogenesis Assay score),[1],+++
O=C(Nc1cccc2c1C(=O)NC2=O)c1ccc(Cl)s1 [Example 6],Results (In Vitro Angiogenesis Assay score),[1],+++

# Source: US7939557B2, “Vascular endothelial receptor specific inhibitors” (Nova Southeastern University, priority 2006, dated 2011)
